Source: article PMC10253161, “New 5-Hydroxycoumarin-Based Tyrosyl-DNA Phosphodiesterase I Inhibitors Sensitize Tumor Cell Line to Topotecan” (International Journal of Molecular Sciences, 2023)
Where two headings read alike, the source gives them in different places.

What was measured:
TDP1 [1] = biological target: T1, TDP1 (Homo sapiens, UniProt Q9NUW8); test: Real-time fluorescence detection of TDP1 activity (FAM/BHQ1 oligonucleotide biosensor); format: biochemical
T1 construct: made in house
Excerpt: To determine the inhibitory properties of the new compounds against TDP1 we used a previously designed real-time oligonucleotide biosensor with 5(6)-carboxyfluorescein (FAM) at the 5′ end and fluorophore quencher BHQ1 (Black Hole Quencher-1) at the 3′-end.
The biosensor, 16-mer DNA oligonucleotide (5′-[FAM] AAC GTC AGGGTC TTC C [BHQ]-3′) was synthesized in the Laboratory of Nucleic Acid Chemistry at the Institute of Chemical Biology and Fundamental Medicine (Novosibirsk, Russia). Real-time fluorescence detection of TDP1 enzyme activity was carried out as described. The recombinant TDP1 was purified as described, using plasmid pET 16B-TDP1, kindly provided by Dr. K.W. Caldecott (University of Sussex, Brighton, UK). To the reaction mixture (200 μL) containing 50 nM oligonucleotide in buffer (50 mM Tris-HCl, pH 8.0, 50 mM NaCl, and 7 mM β-mercaptoethanol), varied concentrations of the tested compounds and purified TDP1 in a final concentration of 1.5 nM were added.
Fluorescence intensity was measured (Ex485/Em520 nm) using POLARstar OPTIMA fluorimeter (BMG LABTECH, GmbH, Ortenberg, Germany) every 1 min for 7 min. The half maximal inhibitory concentrations (IC50) were determined using a six-point concentration response curve and calculated using MARS Data Analysis 2.0 (BMG LABTECH). At least three independent experiments were carried out to obtain the IC50 values.

[2] = Cytotoxicity of compounds, MTT test, HeLa; format: cell-based; details: human, HeLa cells, compound alone
Protocol: (§1) The cytotoxicity of the compounds to HeLa (human cervical cancer) and HEK293A (human embryonic kidney) cell lines was determined using standard colorimetric MTT-test. Cells were seeded in 96-well plates (5000 cells per well) and cultured in DMEM medium (Invitrogen, Carlsbad, CA, USA) supplemented with 10% fetal bovine serum (FBS) (Invitrogen), penicillin (100 units/mL), and streptomycin (100 μg/mL) at 37 °C and 5% CO2 in a humid atmosphere. Control wells contained 1% DMSO. At 30–50% confluence, the tested compounds were added to the medium. To determine the cytotoxicity of Tdp1 inhibitors, the cells were allowed to attach for 24 h and were treated with compounds with concentrations ranging from 1 to 100 μM for 72 h at 37 °C. All measurements were repeated three times.

[3] = Cytotoxicity of compounds, MTT test, HEK293A; format: cell-based; details: human, HEK293A cells, compound alone, read-out: CC50 HEK 293A
Protocol: as §1

TDP1 [4] = biological target: T1, TDP1; parameters: method as in PMID 27658793, PMID 31878088; details: previously found 7-hydroxycoumarin derivatives; cited from earlier work
HEK293A cells = test: Effect of compounds on topotecan cytotoxicity, MTT test, HEK293A; format: cell-based, human; details: 10 µM compound, result in words
Protocol: as §1
(§2) To study the effect of the compounds on the cytotoxicity of topotecan, an aqueous solution of topotecan was used at concentrations from 0.2 to 2 μM for HeLa cells and from 0.05 to 0.5 μM for HEK293A cells against the background of 10 μM of the compounds. Cells treated with compounds alone without topotecan were used as controls.

HeLa cells = test: Effect of compounds on topotecan cytotoxicity, MTT test, HeLa; format: cell-based, human
Protocol: as §1, §2

[5] = Effect of compounds on topotecan cytotoxicity, MTT test, HEK293A; format: cell-based, human; details: human
Protocol: as §1, §2

[6] = Table 1, recombinant TDP1 1.5 nM, 50 nM oligonucleotide, read-out: TDP1 inhibitory activities (IC50)
[7] = Table 2, TDP1 IC50, partly rounded, read-out: IC50

T1 sequence (Q9NUW8 whole entry): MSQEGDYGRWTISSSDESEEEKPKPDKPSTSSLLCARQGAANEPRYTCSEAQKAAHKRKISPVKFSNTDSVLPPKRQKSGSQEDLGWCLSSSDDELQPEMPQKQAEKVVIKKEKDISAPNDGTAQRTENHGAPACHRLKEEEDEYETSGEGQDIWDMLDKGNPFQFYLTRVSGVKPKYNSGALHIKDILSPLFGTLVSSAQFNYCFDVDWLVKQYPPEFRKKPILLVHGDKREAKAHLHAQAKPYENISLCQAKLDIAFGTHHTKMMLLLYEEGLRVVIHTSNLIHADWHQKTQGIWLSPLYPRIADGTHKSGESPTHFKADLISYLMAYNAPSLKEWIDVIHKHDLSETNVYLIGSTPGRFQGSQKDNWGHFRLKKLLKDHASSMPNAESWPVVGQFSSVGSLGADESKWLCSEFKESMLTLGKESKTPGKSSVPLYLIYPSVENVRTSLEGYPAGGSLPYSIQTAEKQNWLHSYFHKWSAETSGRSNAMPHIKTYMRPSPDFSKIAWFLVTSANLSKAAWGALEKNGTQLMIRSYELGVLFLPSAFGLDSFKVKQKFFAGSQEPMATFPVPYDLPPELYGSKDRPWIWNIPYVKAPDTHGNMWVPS

Row | SMILES | IC50 (TDP1 [1]; [6]) [µM] | IC50 (TDP1 [1]; [7]) [µM] | CC50 at 72 h [2] [µM] | melting point [°C] | CC50 at 72 h [3] [µM] | IC50 (TDP1 [4]) [µM] | Effect on the cytotoxic effect of topotecan, HEK293A (HEK293A cells) | Effect on the cytotoxicity of topotecan, HeLa (HeLa cells; 10 µM compound, result in words) | CC50 [5] [µM] | CC50 (HeLa cells; Homo sapiens, HeLa, read-out: Tpc CC50 HeLa) [µM]
1 | Cc1c(-c2ccc(F)cc2)c(=O)oc2cccc(OCC3=CC[C@H]4C[C@@H]3C4(C)C)c12 [33c, 5-(((1R,5S)-6,6-Dimethylbicyclo[3.1.1]hept-2-en-2-yl)methoxy)-3-(4-fluorophenyl)-4-methyl-2H-chromen-2-one] | 5.25 ± 0.04 | 5.25 ± 0.04 | 89 ± 7 | 152 | > 100 | – | – | – | – | –
2 | Cc1c(-c2ccc(F)cc2)c(=O)oc2cccc(OCCC3=CC[C@H]4C[C@@H]3C4(C)C)c12 [33d, 5-(2-((1R,5S)-6,6-Dimethylbicyclo[3.1.1]hept-2-en-2-yl)ethoxy)-3-(4-fluorophenyl)-4-methyl-2H-chromen-2-one] | 2.51 ± 0.14 | – | – | 114 | – | – | – | – | – | –
3 | CC1(C)C2CC=C(COc3ccc4c5c(c(=O)oc4c3)CCC5)C1C2 (stereo not drawn) [compound 11] | – | – | – | – | – | 0.7 | – | – | – | –
4 | Cc1c(-c2ccccc2[N+](=O)[O-])c(=O)oc2cccc(OCCC(C)CCCC(C)C)c12 (stereo not drawn) [38b, 5-(3,7-Dimethyloctyloxy)-4-methyl-3-(2-nitrophenyl)-2H-chromen-2-one] | 2.18 ± 0.13 | – | – | 61 | – | – | – | – | – | –
5 | COc1ccccc1-c1c(C)c2c(OCCC3=CC[C@H]4C[C@@H]3C4(C)C)cccc2oc1=O [37d, 5-(2-((1R,5S)-6,6-Dimethylbicyclo[3.1.1]hept-2-en-2-yl)ethoxy)-3-(2-methoxyphenyl)-4-methyl-2H-chromen-2-one] | 3.93 ± 0.77 | 3.9 ± 0.8 | 48 ± 4 | 135 | 87 ± 7 | – | – | – | – | –
6 | Cc1c(-c2ccccc2[N+](=O)[O-])c(=O)oc2cccc(OCC3=CC[C@H]4C[C@@H]3C4(C)C)c12 [38c, 5-(((1R,5S)-6,6-Dimethylbicyclo[3.1.1]hept-2-en-2-yl)methoxy)-4-methyl-3-(2-nitrophenyl)-2H-chromen-2-one] | 3.83 ± 0.29 | 3.8 ± 0.3 | 83 ± 3 | – | 32 ± 13 | – | – | – | – | –
7 | CC(C)=CCC/C(C)=C/COc1ccc2c(-c3ccc(F)cc3)cc(=O)oc2c1 [compound 12] | – | – | – | – | – | 0.6 | – | – | – | –
8 | Cc1c(-c2ccc(Br)cc2)c(=O)oc2cccc(OCC3=CC[C@H]4C[C@@H]3C4(C)C)c12 [34c, 3-(4-Bromophenyl)-5-(((1R,5S)-6,6-dimethylbicyclo[3.1.1]hept-2-en-2-yl)methoxy)-4-methyl-2H-chromen-2-one] | 0.9 ± 0.07 | 0.9 ± 0.07 | > 100 | 148 | > 100 | – | protect cells from the cytotoxic effects of topotecan | – | – | –
9 | CC(C)=CCC/C(C)=C/COc1cccc2oc(=O)c(-c3ccc(F)cc3)c(C)c12 [33a, (E)-5-(3,7-Dimethylocta-2,6-dienyloxy)-3-(4-fluorophenyl)-4-methyl-2H-chromen-2-one] | 0.13 ± 0.03 | 0.13 ± 0.03 | > 100 | – | > 100 | – | – | significantly increased cytotoxicity of topotecan | – | –
10 | COc1ccccc1-c1c(C)c2c(OC/C=C(\C)CCC=C(C)C)cccc2oc1=O [37a, (E)-5-(3,7-Dimethylocta-2,6-dienyloxy)-3-(2-methoxyphenyl)-4-methyl-2H-chromen-2-one] | 1.22 ± 0.04 | 1.22 ± 0.04 | 18 ± 10 | 99 | 16 ± 0.7 | – | – | – | – | –
11 | CC(C)=CCC/C(C)=C/COc1cccc2oc(=O)c(-c3ccccc3Br)c(C)c12 [36a, (E)-3-(2-Bromophenyl)-5-(3,7-dimethylocta-2,6-dienyloxy)-4-methyl-2H-chromen-2-one] | 0.85 ± 0.15 | 0.9 ± 0.2 | 49 ± 2 | – | 59 ± 6 | – | – | – | – | –
12 | Cc1c(-c2ccccc2Br)c(=O)oc2cccc(OCC3=CC[C@H]4C[C@@H]3C4(C)C)c12 [36c, 3-(2-Bromophenyl)-5-(((1R,5S)-6,6-dimethylbicyclo[3.1.1]hept-2-en-2-yl)methoxy)-4-methyl-2H-chromen-2-one] | 4.36 ± 1.14 | 4.36 ± 1.14 | 73.5 ± 0.6 | 157 | > 100 | – | – | – | – | –
13 | COc1ccccc1-c1c(C)c2c(OCCC(C)CCCC(C)C)cccc2oc1=O (stereo not drawn) [37b, 5-(3,7-Dimethyloctyloxy)-3-(2-methoxyphenyl)-4-methyl-2H-chromen-2-one] | 2.6 ± 0.35 | – | – | 114 | – | – | – | – | – | –
14 | COc1ccc(-c2c(C)c3c(OC/C=C(\C)CCC=C(C)C)cccc3oc2=O)cc1 [35a, (E)-5-(3,7-Dimethylocta-2,6-dienyloxy)-3-(4-methoxyphenyl)-4-methyl-2H-chromen-2-one] | 6.63 ± 1.12 | 7 ± 1 | > 100 | 85 | > 100 | – | – | – | – | –
15 | CC(C)=CCC/C(C)=C/COc1cccc2oc(=O)c(-c3ccccc3[N+](=O)[O-])c(C)c12 [38a, (E)-5-(3,7-Dimethylocta-2,6-dienyloxy)-4-methyl-3-(2-nitrophenyl)-2H-chromen-2-one] | 1.03 ± 0.08 | 1.03 ± 0.08 | > 100 | 73 | > 100 | – | protect cells from the cytotoxic effects of topotecan | – | – | –
16 | CC(C)=CCC/C(C)=C/COc1cccc2oc(=O)c(-c3ccc(Br)cc3)c(C)c12 [34a, (E)-3-(4-Bromophenyl)-5-(3,7-dimethylocta-2,6-dienyloxy)-4-methyl-2H-chromen-2-one] | 1.06 ± 0.06 | 1.06 ± 0.06 | 32 ± 3 | 93 | 53 ± 1.2 | – | – | – | – | –
17 | Cc1c(-c2ccc(Br)cc2)c(=O)oc2cccc(OCCC(C)CCCC(C)C)c12 (stereo not drawn) [34b, 3-(4-Bromophenyl)-5-(3,7-dimethyloctyloxy)-4-methyl-2H-chromen-2-one] | – | – | – | 137 | – | – | – | – | – | –
18 | Cc1c(-c2ccccc2Br)c(=O)oc2cccc(OCCC(C)CCCC(C)C)c12 (stereo not drawn) [36b, 3-(2-Bromophenyl)-5-(3,7-dimethyloctyloxy)-4-methyl-2H-chromen-2-one] | ≥ 50 | – | – | 73 | – | – | – | – | – | –
19 | COc1ccc(-c2c(C)c3c(OCCC(C)CCCC(C)C)cccc3oc2=O)cc1 (stereo not drawn) [35b, 5-(3,7-Dimethyloctyloxy)-3-(4-methoxyphenyl)-4-methyl-2H-chromen-2-one] | 0.37 ± 0.16 | 0.4 ± 0.2 | 90.7 ± 0.5 | – | > 100 | – | – | – | – | –
20 | COc1ccc(-c2c(C)c3c(OCC4=CC[C@H]5C[C@@H]4C5(C)C)cccc3oc2=O)cc1 [35c, 5-(((1R,5S)-6,6-Dimethylbicyclo[3.1.1]hept-2-en-2-yl)methoxy)-3-(4-methoxyphenyl)-4-methyl-2H-chromen-2-one] | 1.14 ± 0.15 | 1.1 ± 0.2 | 73 ± 6 | – | > 100 | – | – | – | – | –
21 | COc1ccccc1-c1c(C)c2c(OCC3=CC[C@H]4C[C@@H]3C4(C)C)cccc2oc1=O [37c, 5-(((1R,5S)-6,6-Dimethylbicyclo[3.1.1]hept-2-en-2-yl)methoxy)-3-(2-methoxyphenyl)-4-methyl-2H-chromen-2-one] | 0.79 ± 0.06 | 0.79 ± 0.06 | 72 ± 2 | 164 | 52.3 ± 0.9 | – | protect cells from the cytotoxic effects of topotecan | – | – | –
22 | CC[C@@]1(O)C(=O)OCc2c1cc1n(c2=O)Cc2cc3c(CN(C)C)c(O)ccc3nc2-1 [Tpc, topotecan] | – | – | – | – | – | – | – | – | 0.04 ± 0.012 | 0.88 ± 0.24
23 | Cc1c(-c2ccc(F)cc2)c(=O)oc2cccc(OCCC(C)CCCC(C)C)c12 (stereo not drawn) [33b, 5-(3,7-Dimethyloctyloxy)-3-(4-fluorophenyl)-4-methyl-2H-chromen-2-one] | 0.29 ± 0.07 | 0.29 ± 0.07 | > 100 | 114 | 40 ± 10 | – | – | – | – | –
